Source: patent publication US12091411B2, “IRAK degraders and uses thereof” (Kymera Therapeutics, Inc., priority 2022, dated 2024)
Read-outs that look alike come from different tables or passages of the source.

Biological target: T1, IRAK4 (Homo sapiens, UniProt Q9NWZ3)
T1 construct: Degradation of IRAK4 in OCI-LY10 was quantitatively measured using Meso Scale Discovery technology; endogenous in cells; host or cells: OCI-LY10
T1 sequence (Q9NWZ3 1-460): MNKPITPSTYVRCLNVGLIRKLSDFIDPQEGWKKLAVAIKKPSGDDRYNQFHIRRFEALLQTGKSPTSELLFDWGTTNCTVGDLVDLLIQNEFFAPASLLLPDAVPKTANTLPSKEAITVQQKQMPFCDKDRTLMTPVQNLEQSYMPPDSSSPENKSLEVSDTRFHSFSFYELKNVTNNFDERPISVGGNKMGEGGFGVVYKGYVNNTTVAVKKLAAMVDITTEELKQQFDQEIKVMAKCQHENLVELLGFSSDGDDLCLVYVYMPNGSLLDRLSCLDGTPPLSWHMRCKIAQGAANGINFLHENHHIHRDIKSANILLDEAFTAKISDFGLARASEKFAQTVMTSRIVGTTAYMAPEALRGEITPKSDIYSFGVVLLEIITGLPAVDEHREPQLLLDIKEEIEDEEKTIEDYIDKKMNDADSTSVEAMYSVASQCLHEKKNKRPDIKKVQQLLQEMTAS
Test: IRAK4 MSD Degradation in OCI-LY10
Assay type: cell-based
Conditions: OCI-LY10 cells, MSD
Summary of the method: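 OCI-LY10 cells exposed to 8-point 1:3 compound series (top 1 to 10 μM) for 4 to 24 h at 37 °C, 5% CO2. Lysate IRAK4 quantified by MSD sandwich immunoassay. DC50 from three-parameter logistic fit, binned A (<0.01 μM) to D (>0.2 μM or not tested).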

[1] = 4 hrs incubation, read-out: IRAK4 degradation in OCI-LY10 at 4 hrs: DC50
[2] = 24 hrs incubation, read-out: IRAK4 degradation in OCI-LY10 at 24 hrs: DC50

DC50 [1] | DC50 [2] | Compound
> 200 nM | > 200 nM | Cn1c(=O)n(C2CCC(=O)NC2=O)c2cccc(C#CCOC3CCN(C(C#N)[C@H]4CC[C@H](n5cc(NC(=O)c6cnn7ccc(N8C[C@H]9C[C@@H]8CO9)nc67)c(C(F)F)n5)CC4)CC3)c21 (stereo partly drawn) [I-193, N-[1-[4-[cyano-[4-[3-[1-(2,6-dioxo-3-piperidyl)-3-methyl-2-oxo-benzimidazol-4-yl]prop-2-ynoxy]-1-piperidyl]methyl]cyclohexyl]-3-(difluoromethyl)pyrazol-4-yl]-5-[(1R,4R)-2-oxa-5-azabicyclo[2.2.1]heptan-5-yl]pyrazolo[1,5-a]pyrimidine-3-carboxamide]
> 200 nM | > 200 nM | CC([C@H]1CC[C@H](n2cc(NC(=O)c3cnn4ccc(N5C[C@H]6C[C@@H]5CO6)nc34)c(C(F)F)n2)CC1)N1CCN(CC#Cc2cccc3c2n(C)c(=O)n3C2CCC(=O)NC2=O)CC1 (stereo partly drawn) [I-194]
> 200 nM | > 200 nM | CC([C@H]1CC[C@H](n2cc(NC(=O)c3cnn4ccc(N5C[C@H]6C[C@@H]5CO6)nc34)c(C(F)F)n2)CC1)N1CCN(CCCc2cccc3c2n(C)c(=O)n3C2CCC(=O)NC2=O)CC1 (stereo partly drawn) [I-195]
> 200 nM | 10 to 100 nM | Cn1c(=O)n(C2CCC(=O)NC2=O)c2cccc(C#CCN3CCN(C(C#N)[C@H]4CC[C@H](n5cc(NC(=O)c6cnn7ccc(N8C[C@H]9C[C@@H]8CO9)nc67)c(C(F)F)n5)CC4)CC3)c21 (stereo partly drawn) [I-196]
10 to 100 nM | > 200 nM | Cn1c(=O)n(C2CCC(=O)NC2=O)c2cccc(CCCN3CCN(C(C#N)[C@H]4CC[C@H](n5cc(NC(=O)c6cnn7ccc(N8C[C@H]9C[C@@H]8CO9)nc67)c(C(F)F)n5)CC4)CC3)c21 (stereo partly drawn) [I-197]
10 to 100 nM | 10 to 100 nM | O=C1CCC(c2ccc(C#CCOC3CCN(C[C@H]4CC[C@H](n5cc(NC(=O)c6cnn7ccc(N8C[C@H]9C[C@@H]8CO9)nc67)c(C(F)F)n5)CC4)CC3)cc2)C(=O)N1 (stereo partly drawn) [I-198]
> 200 nM | 10 to 100 nM | O=C1CCC(c2cccc(C#CCOC3CCN(C[C@H]4CC[C@H](n5cc(NC(=O)c6cnn7ccc(N8C[C@H]9C[C@@H]8CO9)nc67)c(C(F)F)n5)CC4)CC3)c2)C(=O)N1 (stereo partly drawn) [I-199]
10 to 100 nM | > 200 nM | Cn1c(=O)n(C2CCC(=O)NC2=O)c2cccc(N3CCN([C@H]4CC[C@H](n5cc(NC(=O)c6cnn7ccc(N8C[C@H]9C[C@@H]8CO9)nc67)c(C(F)F)n5)CC4)CC3)c21 (stereo partly drawn) [I-200]
< 10 nM | > 200 nM | Cn1c(=O)n(C2CCC(=O)NC2=O)c2cccc(C3CCN(C4CCN([C@H]5CC[C@H](n6cc(NC(=O)c7cnn8ccc(N9C[C@H]%10C[C@@H]9CO%10)nc78)c(C(F)F)n6)CC5)CC4)CC3)c21 (stereo partly drawn) [I-202]
> 200 nM | > 200 nM | Cn1c(=O)n(C2CCC(=O)NC2=O)c2cccc(N3CCC(N4CCN([C@H]5CC[C@H](n6cc(NC(=O)c7cnn8ccc(N9C[C@H]%10C[C@@H]9CO%10)nc78)c(C(F)F)n6)CC5)CC4)CC3)c21 (stereo partly drawn) [I-203]
< 10 nM | > 200 nM | COc1cc2nc([C@H]3CC[C@H](CN4CCC5(CC4)CCN(c4cccc6c4n(C)c(=O)n6C4CCC(=O)NC4=O)CC5)CC3)ccc2cc1NC(=O)c1cncc(C#N)c1 (stereo partly drawn) [I-204]
> 200 nM | > 200 nM | Cn1c(=O)n(C2CCC(=O)NC2=O)c2cccc(C#CCOC3CCN(C[C@H]4CC[C@H](c5nc(C(F)F)c(NC(=O)c6cnn7ccc(N8C[C@H]9C[C@@H]8CO9)nc67)s5)CC4)CC3)c21 (stereo partly drawn) [I-205]
> 200 nM | > 200 nM | Cn1c(=O)n(C2CCC(=O)NC2=O)c2cccc(C#CCOC3CCN(C[C@H]4CC[C@H](c5nc(C(F)F)c(NC(=O)c6cnn7ccc(N8C[C@H]9C[C@@H]8CO9)nc67)o5)CC4)CC3)c21 (stereo partly drawn) [I-206]
> 200 nM | > 200 nM | Cn1c(=O)n(C2CCC(=O)NC2=O)c2cccc(C#CCOC3CCN(CC4CCN(c5nc(C(F)F)c(NC(=O)c6cnn7ccc(N8C[C@H]9C[C@@H]8CO9)nc67)s5)CC4)CC3)c21 (stereo partly drawn) [I-207]
> 200 nM | > 200 nM | Cn1c(=O)n(C2CCC(=O)NC2=O)c2cccc(C#CCOC3CCN(CC4CCN(c5nc(C(F)F)c(NC(=O)c6cnn7ccc(N8C[C@H]9C[C@@H]8CO9)nc67)o5)CC4)CC3)c21 (stereo partly drawn) [I-208]
> 200 nM | > 200 nM | O=C1CCN(c2cccc(C#CCOC3CCN(C[C@H]4CC[C@H](n5cc(NC(=O)c6cnn7ccc(N8C[C@H]9C[C@@H]8CO9)nc67)c(C(F)F)n5)CC4)CC3)c2)C(=O)N1 [I-209]
> 200 nM | > 200 nM | Cn1c(=O)n(C2CCC(=O)NC2=O)c2cccc(C#CCOC3CCN(C[C@H]4CC[C@H](n5cc(NC(=O)c6cccc(C(F)(F)F)n6)c(C(F)F)n5)CC4)CC3)c21 (stereo partly drawn) [I-210]
> 200 nM | > 200 nM | Cn1c(=O)n(C2CCC(=O)NC2=O)c2cccc(C#CCN3CCN(C[C@H]4CC[C@H](n5cc(NC(=O)c6cccc(C(F)(F)F)n6)c(C(F)F)n5)CC4)CC3)c21 (stereo partly drawn) [I-211]

DC50 [1] | DC50 [2] | Compound
> 200 nM | > 200 nM | Cn1c(=O)n(C2CCC(=O)NC2=O)c2cccc(CCCOC3CCN(C[C@H]4CC[C@H](n5cc(NC(=O)c6cccc(C(F)(F)F)n6)c(C(F)F)n5)CC4)CC3)c21 (stereo partly drawn) [I-212]
> 200 nM | > 200 nM | Cn1c(=O)n(C2CCC(=O)NC2=O)c2cccc(CCCN3CCN(C[C@H]4CC[C@H](n5cc(NC(=O)c6cccc(C(F)(F)F)n6)c(C(F)F)n5)CC4)CC3)c21 (stereo partly drawn) [I-213]
> 200 nM | > 200 nM | COc1nn([C@H]2CC[C@H](CN3CC4CC3CN4c3cccc4c3n(C)c(=O)n4C3CCC(=O)NC3=O)CC2)cc1NC(=O)c1cnn2cc(N(C)C)cnc12 (stereo partly drawn) [I-214]
> 200 nM | > 200 nM | CN(C)c1cnc2c(C(=O)Nc3cn([C@H]4CC[C@H](CN5CCN(c6cccc7c6n(C)c(=O)n7C6CCC(=O)NC6=O)CC5)CC4)nc3F)cnn2c1 (stereo partly drawn) [I-215]
> 200 nM | > 200 nM | Cc1nn([C@H]2CC[C@H](CN3CCN(c4cccc5c4n(C)c(=O)n5C4CCC(=O)NC4=O)CC3)CC2)cc1NC(=O)c1cnn2cc(N(C)C)cnc12 (stereo partly drawn) [I-216]
> 200 nM | > 200 nM | Cc1nn([C@H]2CC[C@H](CN3CCN(c4ccc5c(c4)n(C)c(=O)n5C4CCC(=O)NC4=O)CC3)CC2)cc1NC(=O)c1cnn2cc(N(C)C)cnc12 (stereo partly drawn) [I-217]
100 to 200 nM | > 200 nM | O=C1CCN(c2ccc(C#CCOC3CCN(C[C@H]4CC[C@H](n5cc(NC(=O)c6cnn7ccc(N8C[C@H]9C[C@@H]8CO9)nc67)c(C(F)F)n5)CC4)CC3)cc2)C(=O)N1 [I-218]
> 200 nM | > 200 nM | Cn1c(=O)n(C2CCC(=O)NC2=O)c2cccc(C#CCN3CCN(C[C@H]4CC[C@H](n5cc(NC(=O)c6cnn7ccc(C(C)(C)C)nc67)c(C(F)F)n5)CC4)CC3)c21 (stereo partly drawn) [I-219]
> 200 nM | > 200 nM | COC(C)(C)c1ccn2ncc(C(=O)Nc3cn([C@H]4CC[C@H](CN5CCN(CC#Cc6cccc7c6n(C)c(=O)n7C6CCC(=O)NC6=O)CC5)CC4)nc3C(F)F)c2n1 (stereo partly drawn) [I-220]
> 200 nM | 10 to 100 nM | Cn1c(=O)n(C2CCC(=O)NC2=O)c2cccc(C#CCN3CCN(C[C@H]4CC[C@H](n5cc(NC(=O)c6cnn7ccc(N8CCCC8(C)C)nc67)c(C(F)F)n5)CC4)CC3)c21 (stereo partly drawn) [I-221]
> 200 nM | 10 to 100 nM | Cn1c(=O)n(C2CCC(=O)NC2=O)c2cccc(C#CCN3CCN(C[C@H]4CC[C@H](n5cc(NC(=O)c6cnn7ccc(N8CCCC89CC9)nc67)c(C(F)F)n5)CC4)CC3)c21 (stereo partly drawn) [I-222]
> 200 nM | 10 to 100 nM | Cn1c(=O)n(C2CCC(=O)NC2=O)c2cccc(C#CCN3CCN(C[C@H]4CC[C@H](n5cc(NC(=O)c6cnn7ccc(N8CCC(C)(C)C8)nc67)c(C(F)F)n5)CC4)CC3)c21 (stereo partly drawn) [I-223]
> 200 nM | 10 to 100 nM | Cn1c(=O)n(C2CCC(=O)NC2=O)c2cccc(C#CCN3CCN(C[C@H]4CC[C@H](n5cc(NC(=O)c6cnn7ccc(N8CCC9(CC9)C8)nc67)c(C(F)F)n5)CC4)CC3)c21 (stereo partly drawn) [I-224]
> 200 nM | < 10 nM | Cn1c(=O)n(C2CCC(=O)NC2=O)c2cccc(C#CCN3CCN(C[C@H]4CC[C@H](n5cc(NC(=O)c6cnn7ccc(N8CC(C)(C)C8)nc67)c(C(F)F)n5)CC4)CC3)c21 (stereo partly drawn) [I-225]
> 200 nM | < 10 nM | Cn1c(=O)n(C2CCC(=O)NC2=O)c2cccc(C#CCN3CCN(C[C@H]4CC[C@H](n5cc(NC(=O)c6cnn7ccc(N8CC9(CC9)C8)nc67)c(C(F)F)n5)CC4)CC3)c21 (stereo partly drawn) [I-226]
> 200 nM | 10 to 100 nM | Cn1c(=O)n(C2CCC(=O)NC2=O)c2cccc(C#CCN3CCN(C[C@H]4CC[C@H](n5cc(NC(=O)c6cnn7ccc(N8CCC(C)(C)CC8)nc67)c(C(F)F)n5)CC4)CC3)c21 (stereo partly drawn) [I-227]
> 200 nM | < 10 nM | Cn1c(=O)n(C2CCC(=O)NC2=O)c2cccc(C#CCN3CCN(C[C@H]4CC[C@H](n5cc(NC(=O)c6cnn7ccc(N8CCC9(CC8)CC9)nc67)c(C(F)F)n5)CC4)CC3)c21 (stereo partly drawn) [I-228]
> 200 nM | 10 to 100 nM | Cn1c(=O)n(C2CCC(=O)NC2=O)c2cccc(C#CCN3CCN(C[C@H]4CC[C@H](n5cc(NC(=O)c6cnn7ccc(N8CCCC(C)(C)C8)nc67)c(C(F)F)n5)CC4)CC3)c21 (stereo partly drawn) [I-229]
